The compounds below were run against human MRGPRD (Homo sapiens, UniProt Q8TDS7) (assay: MRGPRD antagonist activity, IP-One HTRF assay in CHO cells stably expressing human MRGPRD (versus 100 μM β-Alanine agonist)).
Sequence of human MRGPRD (Q8TDS7 whole entry): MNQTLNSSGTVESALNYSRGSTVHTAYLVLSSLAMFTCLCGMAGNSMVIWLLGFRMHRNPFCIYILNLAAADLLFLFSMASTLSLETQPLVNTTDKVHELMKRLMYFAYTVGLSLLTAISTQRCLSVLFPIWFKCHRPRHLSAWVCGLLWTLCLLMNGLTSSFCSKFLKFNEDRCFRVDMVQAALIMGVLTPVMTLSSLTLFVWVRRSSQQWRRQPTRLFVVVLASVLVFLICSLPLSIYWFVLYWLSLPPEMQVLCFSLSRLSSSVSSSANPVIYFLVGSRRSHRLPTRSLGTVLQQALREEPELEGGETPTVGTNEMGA
Type: cell-based
Procedure, shortened: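 Cells (20,000/well, plated overnight) received antagonist and agonist in buffer with 5.7 mM Tris-HCl, 43 mM NaCl and 50 mM LiCl at pH 8. Incubation ran 1 h at 37 °C, then 1 h at room temperature, before IP-1 HTRF detection. IC50 was fitted from the HTRF ratio, and percent antagonism was taken relative to the maximum efficacy response, given as averages with SEM.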
`COc1cccc(-c2nc([C@@H]3CCCN(C(=O)NCCc4ccnn4C)C3)n3ccccc23)c1` [Compound 10-25] gave an IC50 of 0.1 to 0.5 µM. For `CN(C)c1ccc(NC(=O)N2CCC[C@@H](c3nc(-c4ccc5c(c4)CCC5)c4ccccn34)C2)cc1` [Compound 10-26], the IC50 was 0.5 to 1 µM. Work on `CN(C)c1ccc(NC(=O)N2CCC[C@@H](c3nc(-c4ccc5c(c4)OCO5)c4ccccn34)C2)cc1` [Compound 10-27] yielded an IC50 of 0.5 to 1 µM. Work on `CN(C)c1ccc(NC(=O)N2CCC[C@H](c3nc(-c4cccc(F)c4)c4ccccn34)C2)cc1` [Compound 10-28] yielded an IC50 of 1 to 3 µM. In the case of `CCc1ccc(-c2nc([C@@H]3CCCN(C(=O)Nc4ccc(N(C)C)cc4)C3)n3ccccc23)cc1` [Compound 10-29], the IC50 is reported as 0.5 to 1 µM. `CN(C)c1ccc(NC(=O)N2CCC[C@@H](c3nc(-c4ccc(C(F)(F)F)cc4)c4ccccn34)C2)cc1` [Compound 10-30] showed an IC50 of 1 to 3 µM. `COc1ccccc1-c1nc([C@H]2CCCN(C(=O)Nc3ccc(N(C)C)cc3)C2)n2ccccc12` [Compound 10-31] was tested, and the IC50 was > 3 µM. `CN(C)c1ccc(NC(=O)N2CCC[C@@H](c3nc(-c4ccccc4C(F)F)c4ccccn34)C2)cc1` [Compound 10-32] was tested, and the IC50 was 1 to 3 µM. For `CN(C)c1ccc(NC(=O)N2CCC[C@@H](c3nc(-c4ccc(-c5ccccc5)cc4)c4ccccn34)C2)cc1` [Compound 10-33], the IC50 was > 3 µM. In the case of `CN(C)c1ccc(NC(=O)N2CCC[C@@H](c3nc(-c4ccc5ccccc5c4)c4ccccn34)C2)cc1` [Compound 10-34], the IC50 is reported as 1 to 3 µM. `CN(C)c1ccc(NC(=O)N2CCC[C@@H](c3nc(-c4ccc(S(C)(=O)=O)cc4)c4ccccn34)C2)cc1` [Compound 10-35] was tested, and the IC50 was > 3 µM. `CC(=O)c1ccc(-c2nc([C@@H]3CCCN(C(=O)Nc4ccc(N(C)C)cc4)C3)n3ccccc23)cc1` [Compound 10-36] gave an IC50 of 0.5 to 1 µM. Compound `COc1ccccc1-c1nc([C@@H]2CCCN(C(=O)Nc3ccc(N(C)C)cc3)C2)n2ccccc12` [Compound 10-37] has an IC50 of 0.5 to 1 µM. In the case of `COc1cccc(-c2nc([C@@H]3CCCN(C(=O)NCCN4CCOCC4)C3)n3ccccc23)c1` [Compound 10-38], the IC50 is reported as 0.5 to 1 µM. In the case of `COC/C=C/c1nc([C@@H]2CCCN(C(=O)Nc3ccc(N(C)C)cc3)C2)n2ccccc12` [Compound 10-39], the IC50 is reported as > 3 µM. In the case of `CNc1cccc(-c2nc([C@@H]3CCCN(C(=O)Nc4ccc(N(C)C)cc4)C3)n3ccccc23)c1` [Compound 10-40], the IC50 is reported as 0.5 to 1 µM. In the case of `COCCCc1nc([C@@H]2CCCN(C(=O)Nc3ccc(N(C)C)cc3)C2)n2ccccc12` [Compound 10-41], the IC50 is reported as 1 to 3 µM. `CN(C)c1ccc(NC(=O)N2CCC[C@@H](c3nc(-c4cccc(F)c4)c4ccccn34)C2)cc1` [Compound 10-42] gave an IC50 of 0.5 to 1 µM. `COc1ccc(-c2nc([C@@H]3CCCN(C(=O)Nc4ccc(N(C)C)cc4)C3)n3ccccc23)cc1` [Compound 10-43] gave an IC50 of 0.5 to 1 µM. `CN(C)c1ccc(NC(=O)N2CCC[C@@H](c3nc(C4=CCCCC4)c4ccccn34)C2)cc1` [Compound 10-44] showed an IC50 of 0.1 to 0.5 µM. In the case of `CN(C)c1ccc(NC(=O)N2CCC[C@@H](c3nc(C4CCCCC4)c4ccccn34)C2)cc1` [Compound 10-45], the IC50 is reported as 0.1 to 0.5 µM. In the case of `CN(C)C(=O)c1ccc(-c2nc([C@@H]3CCCN(C(=O)Nc4ccc(N(C)C)cc4)C3)n3ccccc23)cc1` [Compound 10-46], the IC50 is reported as > 3 µM. `CN(C)c1ccc(NC(=O)N2CCC[C@@H](c3nc(-c4csc5ccccc45)c4ccccn34)C2)cc1` [Compound 10-47] showed an IC50 of 0.1 to 0.5 µM. `COc1ccc(-c2nc([C@H]3CCCN(C(=O)Nc4ccc(N(C)C)cc4)C3)n3ccccc23)cc1` [Compound 10-48] was tested, and the IC50 was 1 to 3 µM. Work on `CN(C)c1ccc(NC(=O)N2CCC[C@@H](c3nc(-c4ccc(C(F)F)cc4)c4ccccn34)C2)cc1` [Compound 10-49] yielded an IC50 of 0.1 to 0.5 µM. In the case of `CN(C)c1ccc(NC(=O)N2CCC[C@@H](c3nc(-c4cccc5c4CCC5)c4ccccn34)C2)cc1` [Compound 10-50], the IC50 is reported as < 0.1 µM. With `CN(C)c1ccc(NC(=O)N2CCC[C@@H](c3nc(-c4cccc5c4OCO5)c4ccccn34)C2)cc1` [Compound 10-51] the IC50 was < 0.1 µM. For `CN(C)c1ccc(NC(=O)N2CCC[C@@H](c3nc(-c4cnn(Cc5ccccc5)c4)c4ccccn34)C2)cc1` [Compound 10-52], the IC50 was 1 to 3 µM. `CN(C)c1ccc(NC(=O)N2CCC[C@@H](c3nc(-c4cnoc4)c4ccccn34)C2)cc1` [Compound 10-53] showed an IC50 of 0.5 to 1 µM. Compound `CN(C)c1ccc(NC(=O)N2CCC[C@@H](c3nc(-c4cn(S(=O)(=O)c5ccccc5)c5ccccc45)c4ccccn34)C2)cc1` [Compound 10-54] has an IC50 of 0.5 to 1 µM. `Cc1noc(C)c1-c1nc([C@@H]2CCCN(C(=O)Nc3ccc(N(C)C)cc3)C2)n2ccccc12` [Compound 10-55] was tested, and the IC50 was 0.5 to 1 µM. `CC(=O)c1ccc(-c2nc([C@@H]3CCCN(C(=O)Nc4ccc(N(C)C)cc4)C3)n3ccccc23)s1` [Compound 10-57] showed an IC50 of 0.5 to 1 µM. `Cc1csc(-c2nc([C@@H]3CCCN(C(=O)Nc4ccc(N(C)C)cc4)C3)n3ccccc23)c1` [Compound 10-58] was tested, and the IC50 was 0.5 to 1 µM. In the case of `CN(C)c1ccc(NC(=O)N2CCC[C@@H](c3nc(-c4cccc(S(C)(=O)=O)c4)c4ccccn34)C2)cc1` [Compound 10-59], the IC50 is reported as 1 to 3 µM. In the case of `COc1ncc(-c2nc([C@@H]3CCCN(C(=O)Nc4ccc(N(C)C)cc4)C3)n3ccccc23)cn1` [Compound 10-60], the IC50 is reported as > 3 µM. `CN(C)c1ccc(NC(=O)N2CCC[C@@H](c3nc(-c4cc5ccccc5s4)c4ccccn34)C2)cc1` [Compound 10-61] was tested, and the IC50 was > 3 µM. In the case of `CN(C)c1ccc(NC(=O)N2CCC[C@@H](c3nc(-c4cnn(CC5CC5)c4)c4ccccn34)C2)cc1` [Compound 10-62], the IC50 is reported as 1 to 3 µM. Compound `CN(C)c1ccc(NC(=O)N2CCC[C@@H](c3nc(-c4cnn(-c5ccccc5)c4)c4ccccn34)C2)cc1` [Compound 10-63] has an IC50 of 1 to 3 µM. For `CN(C)Cc1cccc(-c2nc([C@@H]3CCCN(C(=O)Nc4ccc(N(C)C)cc4)C3)n3ccccc23)c1` [Compound 10-64], the IC50 was > 3 µM. Compound `CN(C)c1ccc(NC(=O)N2CCC[C@@H](c3nc(-c4ccccc4CC#N)c4ccccn34)C2)cc1` [Compound 10-65] has an IC50 of 0.5 to 1 µM. For `CN(C)c1ccc(NC(=O)N2CCC[C@@H](c3nc(-c4ccccc4S(C)(=O)=O)c4ccccn34)C2)cc1` [Compound 10-66], the IC50 was > 3 µM. Compound `COCc1cccc(-c2nc([C@@H]3CCCN(C(=O)Nc4ccc(N(C)C)cc4)C3)n3ccccc23)c1` [Compound 10-67] has an IC50 of 1 to 3 µM. `CN(C)c1ccc(NC(=O)N2CCC[C@@H](c3nc(-c4nn(C)c5ccccc45)c4ccccn34)C2)cc1` [Compound 10-68] was tested, and the IC50 was 0.5 to 1 µM. Compound `CC(C)Cn1nc(C(F)(F)F)cc1-c1nc([C@@H]2CCCN(C(=O)Nc3ccc(N(C)C)cc3)C2)n2ccccc12` [Compound 10-69] has an IC50 of 0.5 to 1 µM. `COC(=O)c1cccc(-c2nc([C@@H]3CCCN(C(=O)Nc4ccc(N(C)C)cc4)C3)n3ccccc23)c1` [Compound 10-70] was tested, and the IC50 was < 0.1 µM. With `CN(C)C(=O)c1cccc(-c2nc([C@@H]3CCCN(C(=O)Nc4ccc(N(C)C)cc4)C3)n3ccccc23)c1` [Compound 10-71] the IC50 was < 0.1 µM. With `CN(C)c1ccc(NC(=O)N2CCC[C@@H](c3nc(-c4cnn(C(F)F)c4)c4ccccn34)C2)cc1` [Compound 10-72] the IC50 was 0.1 to 0.5 µM. `Cc1ccccc1-c1nc(C2CCCN(C(=O)Nc3ccccc3F)C2)n2ccccc12` (stereo not drawn) [Compound 11-1] gave an IC50 of 1 to 3 µM. Compound `O=C(Nc1ccccc1F)N1CCCC(c2nc(-c3ccccc3F)c3ccccn23)C1` (stereo not drawn) [Compound 11-2] has an IC50 of 1 to 3 µM. With `COc1ccccc1-c1nc(C2CCCN(C(=O)Nc3ccccc3F)C2)n2ccccc12` (stereo not drawn) [Compound 11-3] the IC50 was 1 to 3 µM. With `Cc1cccc(-c2nc(C3CCCN(C(=O)Nc4ccccc4F)C3)n3ccccc23)c1` (stereo not drawn) [Compound 11-4] the IC50 was > 3 µM. `O=C(Nc1ccccc1F)N1CCCC(c2nc(-c3cccc(F)c3)c3ccccn23)C1` (stereo not drawn) [Compound 11-5] gave an IC50 of 1 to 3 µM. In the case of `O=C(Nc1ccccc1F)N1CCCC(c2nc(-c3cccnc3)c3ccccn23)C1` (stereo not drawn) [Compound 11-6], the IC50 is reported as > 3 µM. In the case of `Cc1ccc(-c2nc(C3CCCN(C(=O)Nc4ccccc4F)C3)n3ccccc23)cc1` (stereo not drawn) [Compound 11-7], the IC50 is reported as 1 to 3 µM. Work on `O=C(Nc1ccccc1F)N1CCCC(c2nc(-c3ccc(F)cc3)c3ccccn23)C1` (stereo not drawn) [Compound 11-8] yielded an IC50 of 1 to 3 µM. In the case of `O=C(Nc1ccccc1F)N1CCCC(c2nc(-c3ccncc3)c3ccccn23)C1` (stereo not drawn) [Compound 11-10], the IC50 is reported as 1 to 3 µM. `O=C(Nc1ccccc1F)N1CCCC(c2nc(-c3ccccn3)c3ccccn23)C1` (stereo not drawn) [Compound 11-11] was tested, and the IC50 was > 3 µM. `COc1cccc(-c2nc(C3CCCN(C(=O)Cc4ccccc4F)C3)n3ccccc23)c1` (stereo not drawn) [Compound 12-1, 2-(2-fluorophenyl)-1-(3-(1-(3-methoxyphenyl)imidazo[1,5-a]pyridin-3-yl)piperidin-1-yl)ethan-1-one] was tested, and the IC50 was 0.1 to 0.5 µM. With `COc1cccc(-c2nc(C3CCCN(C(=O)Cc4ccc(F)cc4)C3)n3ccccc23)c1` (stereo not drawn) [Compound 12-2] the IC50 was 0.5 to 1 µM. `COc1cccc(-c2nc(C3CCCN(C(=O)c4ccc(F)cc4)C3)n3ccccc23)c1` (stereo not drawn) [Compound 12-3] gave an IC50 of 0.5 to 1 µM. In the case of `COc1cccc(-c2nc(C3CCCN(C(=O)Cc4cccc(F)c4)C3)n3ccccc23)c1` (stereo not drawn) [Compound 12-4], the IC50 is reported as 0.1 to 0.5 µM. In the case of `COc1cccc(-c2nc(C3CCCN(C(=O)c4ccccc4F)C3)n3ccccc23)c1` (stereo not drawn) [Compound 12-5], the IC50 is reported as 0.5 to 1 µM. Work on `COc1cccc(-c2nc(C3CCCN(C(=O)c4cccc(F)c4)C3)n3ccccc23)c1` (stereo not drawn) [Compound 12-6] yielded an IC50 of 0.1 to 0.5 µM. `COc1cccc(-c2nc(C3CCCN(C(=O)c4ccc(C)cc4F)C3)n3ccccc23)c1` (stereo not drawn) [Compound 12-7] gave an IC50 of 0.5 to 1 µM. In the case of `COc1cccc(-c2nc(C3CCCN(C(=O)c4ccc(C)cc4C)C3)n3ccccc23)c1` (stereo not drawn) [Compound 12-8], the IC50 is reported as 1 to 3 µM. For `COc1cccc(-c2nc(C3CCCN(C(=O)c4ccc(OC)cc4C)C3)n3ccccc23)c1` (stereo not drawn) [Compound 12-9], the IC50 was 0.5 to 1 µM. With `COc1cccc(-c2nc(C3CCCN(C(=O)c4ccc(F)cc4C)C3)n3ccccc23)c1` (stereo not drawn) [Compound 12-10] the IC50 was 1 to 3 µM. In the case of `COc1cccc(-c2nc(C3CCCN(C(=O)c4ccc(F)cc4F)C3)n3ccccc23)c1` (stereo not drawn) [Compound 12-11], the IC50 is reported as 0.5 to 1 µM. `COc1cccc(-c2nc(C3CCCN(C(=O)c4ccc(F)c(F)c4)C3)n3ccccc23)c1` (stereo not drawn) [Compound 12-12] showed an IC50 of 0.5 to 1 µM.
